Reference: patent US20260027131A1, “PRODRUGS, PRODRUG COMPOSITIONS AND RELATED METHODS” (Praesidia Biotherapeutics Inc., priority 2022, published 2026)
“And” between values parts separate entries of the source, which are not always exact repeats. Equal values may be shown once.

Assays:
in vitro = settings: human, plasma
Method: (§1) Rat and human plasma were obtained from qualified vendors. 5 μL of 500 μM of the test article solution was added to 495 μL of pre-incubated human or rat plasma to reach a final concentration of 5 μM. The final concentration of organic solvents was not more than 0.5%. The assay was performed in duplicate. The reaction samples were incubated in a 37° C. water bath with shaking at approximately 60 rpm. 50 μL of the reaction samples were collected at 0, 30, 60, 120 and 180 minutes. The reaction was stopped by adding 300 μL of room temperature quench solution (acetonitrile containing internal standards (IS, 200 nM labetalol, 100 nM alprazolam and 2 μM ketoprofen)). The samples were vortexed for 5 minutes followed by centrifugation of the samples at 3,220 g for 30 minutes at room temperature to precipitate the protein. 100 μL of the supernatant was transferred to a new plate and diluted with 100 μL or 200 μL water according to the LC/MS signal response and peak shape. The samples were mixed well and analyzed using LC/MS/MS. The remaining percentage of parent drug versus reaction time was used to calculate the t1/2 value.

DPP4 = DPP4 (Homo sapiens, UniProt P27487); assay: in vitro; settings: recombinant enzyme
Method: Aliquots were withdrawn at 0, 60 and 120 minutes from the reaction mixture and quenched with 20-volumes of cold acetonitrile. […] Glycine-proline p-nitroanilide was used as a positive control for this assay.

Rat plasma stability = assay type: in vitro ADME; settings: rat; for half-life at 5 μM: plasma
Method: Rat and human plasma were obtained from qualified vendors. […] The assay was performed in duplicate.

[1] = Chemical stability at pH 4.5 and pH 7.4 in PBS; assay type: physicochemical; settings: for Chemical Stability, pH 4.5: PBS pH 4.5, 37° C.; for Chemical Stability, pH 4.5 / Chemical Stability, pH 7.4: 5 μM, up to 240 min; for Chemical Stability, pH 7.4: PBS pH 7.4, 37° C.
Method: The assay was performed in duplicate. […] Samples were incubated at 37° C. at 600 rpm.

[2] = target: T1, Glucocorticoid receptor (GR) (Homo sapiens, UniProt P04150); assay: TR-FRET GR competitive binding assay; settings: 0.1 μM
T1 sequence (P04150 1-777): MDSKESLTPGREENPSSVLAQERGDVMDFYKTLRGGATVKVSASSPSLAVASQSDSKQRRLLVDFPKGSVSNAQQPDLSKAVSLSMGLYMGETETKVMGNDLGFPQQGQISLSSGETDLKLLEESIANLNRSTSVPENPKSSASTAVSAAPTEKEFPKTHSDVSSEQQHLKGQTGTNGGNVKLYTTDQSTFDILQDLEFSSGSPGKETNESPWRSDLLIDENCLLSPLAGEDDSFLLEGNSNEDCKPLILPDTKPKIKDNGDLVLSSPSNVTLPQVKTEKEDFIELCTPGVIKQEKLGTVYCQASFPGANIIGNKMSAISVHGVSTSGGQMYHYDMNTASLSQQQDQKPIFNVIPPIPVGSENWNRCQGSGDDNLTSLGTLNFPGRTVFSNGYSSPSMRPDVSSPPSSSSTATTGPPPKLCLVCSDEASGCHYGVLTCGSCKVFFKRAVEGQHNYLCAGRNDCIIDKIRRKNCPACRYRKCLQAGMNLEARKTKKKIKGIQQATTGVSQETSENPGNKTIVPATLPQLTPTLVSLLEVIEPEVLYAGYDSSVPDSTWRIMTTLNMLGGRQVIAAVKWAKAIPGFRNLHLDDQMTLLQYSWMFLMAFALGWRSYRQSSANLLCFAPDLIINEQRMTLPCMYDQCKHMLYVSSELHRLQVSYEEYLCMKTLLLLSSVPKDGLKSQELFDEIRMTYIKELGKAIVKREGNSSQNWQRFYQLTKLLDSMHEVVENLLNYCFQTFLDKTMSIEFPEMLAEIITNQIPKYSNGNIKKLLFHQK
Method: Glucocorticoid receptor (GR) binding of prodrugs was determined using TR-FRET GR competitive binding assay. Three-point (0.1, 1 and 10 μM) binding was evaluated for each prodrug.

[3] = Metabolic stability in rat liver microsomes; assay type: in vitro ADME; settings: rat, microsomes, 1 μM
Method: Rat liver microsomes were obtained from qualified vendors and metabolic stability of the test compound was determined at 1 μM. The compound was incubated at 37° C. with 0.5 mg microsome/mL in the buffer in the presence of 1 mM NADPH. Aliquots of 50 μL were taken from the reaction solution at 0, 15, 30, 45 and 60 minutes. […] All samples were analyzed in duplicates.

[4] = Pharmacokinetic studies in rats: plasma and lung; settings: rat, in vivo, iv
Method: Six to eight weeks old Sprague-Dawley rats were procured from a qualified provider. Test compounds were introduced in rats by a single intravenous administration. […] Blood samples (0.1, 0.2 or 0.5 mL) were collected with a 1 mL syringe containing anticoagulants K2EDTA. Blood samples were centrifuged to obtain plasma for analysis. […] After collection at each time point, lung samples were frozen at −75° C. Prior to analysis, a portion of lung sample was weighed and homogenized with phosphate buffer saline. […] Data analysis and pharmacokinetic parameters were generated using WinNonlin software.

[5] = read-out: Rat Plasma Stability t½

Chain of DPP4 (P27487 whole entry, species assumed): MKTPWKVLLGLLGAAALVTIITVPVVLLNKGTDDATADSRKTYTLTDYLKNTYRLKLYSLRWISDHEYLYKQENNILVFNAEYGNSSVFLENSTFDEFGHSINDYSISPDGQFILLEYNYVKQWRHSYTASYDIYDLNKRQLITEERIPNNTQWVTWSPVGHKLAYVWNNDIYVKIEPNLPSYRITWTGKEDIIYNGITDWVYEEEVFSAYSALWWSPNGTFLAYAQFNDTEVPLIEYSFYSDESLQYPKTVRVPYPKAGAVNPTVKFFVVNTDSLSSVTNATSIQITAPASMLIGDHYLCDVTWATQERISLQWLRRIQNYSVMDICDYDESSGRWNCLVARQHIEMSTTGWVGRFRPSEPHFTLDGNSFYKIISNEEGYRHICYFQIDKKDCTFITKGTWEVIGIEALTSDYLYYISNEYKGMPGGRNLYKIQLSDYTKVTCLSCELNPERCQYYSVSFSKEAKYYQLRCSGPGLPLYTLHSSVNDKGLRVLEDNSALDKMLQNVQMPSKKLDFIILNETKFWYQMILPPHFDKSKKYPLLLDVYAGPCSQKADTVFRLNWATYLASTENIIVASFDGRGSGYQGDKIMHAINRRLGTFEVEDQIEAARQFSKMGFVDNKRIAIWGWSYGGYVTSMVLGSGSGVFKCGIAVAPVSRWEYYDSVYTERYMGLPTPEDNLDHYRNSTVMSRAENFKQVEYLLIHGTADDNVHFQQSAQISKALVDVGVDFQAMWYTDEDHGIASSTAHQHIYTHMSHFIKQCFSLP
Method for Caco-2 cell monolayers: CaCO-2 cells were cultured, and a monolayer was developed in-house in 96 well-plates over 18 days using standard protocol. The monolayer was tested for the integrity of the cell monolayer before using.
Test compounds were added to the transwell insert (apical compartment) to determine the rate of drug transport in the apical to basolateral direction. To determine the rate of drug transport in the basolateral to apical direction, the test compound was added to the receiver plate wells (basolateral compartment). Appropriate amount of HBSS (10 mM HEPES, pH 7.4) was added in both compartments for a final volume of 200 μL. The plates were incubated at 37° C. with shaking at 150 rpm on a rotary shaker for 2 hours. At the end of the transport period, 50 μL from the apical and basolateral wells were collected and 4 volume of cold acetonitrile containing internal standards (IS: 100 nM alprazolam, 200 nM labetalol, and 2 μM ketoprofen) was added to each sample to terminate the reaction. The samples were vortexed and centrifuged at 3,800 g for 20 minutes. An aliquot of 150 μL of the supernatant was used for LC/MS/MS analysis. All samples were analyzed in duplicates. Samples were analyzed through LC/MS/MS for estimating the permeability and efflux of the compounds across Caco-2 cell monolayers.
Method for Human plasma stability: as §1

CC(C)C(N)C(=O)OCC(=O)[C@@]1(O)[C@H](C)C[C@H]2[C@@H]3CCC4=CC(=O)C=C[C@]4(C)[C@@]3(F)[C@@H](O)C[C@@]21C (some centres unmarked) [Comparative Compound 1, reference compound]
half-life at 5 μM (in vitro): 173 min

C[C@@H]1C[C@H]2[C@@H]3CCC4=CC(=O)C=C[C@]4(C)[C@@]3(F)[C@@H](O)C[C@]2(C)[C@@]1(O)C(=O)COC(=O)[C@@H]1CCCN1 [Comparative Compound 3, reference compound]
half-life at 5 μM (in vitro): 25 min

CC(C)[C@H](N)C(=O)Nc1ccc(C(=O)OCC(=O)[C@@]2(O)[C@H](C)C[C@H]3[C@@H]4CCC5=CC(=O)C=C[C@]5(C)[C@@]4(F)[C@@H](O)C[C@@]32C)cc1 [Compound 1]
half-life at 5 μM (in vitro): > 240 min

CC(C)[C@H](NC(=O)[C@@H]1CCCN1C(=O)CN)C(=O)Nc1ccc(C(=O)OCC(=O)[C@@]2(O)[C@H](C)C[C@H]3[C@@H]4CCC5=CC(=O)C=C[C@]5(C)[C@@]4(F)[C@@H](O)C[C@@]32C)cc1 [Compound 3]
half-life at 10 μM (DPP4): 152 min

CC(C)[C@H](N)C(=O)Nc1ccc(C(=O)OCC(=O)[C@@]2(O)[C@H](C)C[C@H]3[C@@H]4CCC5=CC(=O)C=C[C@]5(C)[C@@]4(F)[C@@H](O)C[C@@]32C)cc1F [Compound 6]
half-life at 5 μM (in vitro): > 240 min
half-life at 5 μM (Rat plasma stability): > 240 min

C[C@@H]1CC2[C@@H]3CCC4=CC(=O)C=C[C@]4(C)[C@@]3(F)[C@@H](O)C[C@]2(C)[C@@]1(O)C(=O)COC(=O)c1cccc(F)c1NC(=O)[C@@H](N)Cc1ccccc1.Cl (some centres unmarked) [Compound 7]
Chemical Stability, pH 4.5 [1]: Yes
Chemical Stability, pH 7.4 [1]: Yes

COc1cc(NC(=O)[C@@H](N)C(C)C)c(C(=O)OCC(=O)[C@@]2(O)[C@H](C)CC3[C@@H]4CCC5=CC(=O)C=C[C@]5(C)[C@@]4(F)[C@@H](O)C[C@@]32C)c(OC)c1 (some centres unmarked) [Compound 11]
half-life at 5 μM (in vitro): > 240 min
half-life at 5 μM (Rat plasma stability): > 240 min

COc1cc(NC(=O)[C@@H](N)Cc2ccccc2)c(C(=O)OCC(=O)[C@@]2(O)[C@H](C)CC3[C@@H]4CCC5=CC(=O)C=C[C@]5(C)[C@@]4(F)[C@@H](O)C[C@@]32C)c(OC)c1 (some centres unmarked) [Compound 12]
half-life at 5 μM (in vitro): > 240 min
half-life at 5 μM (Rat plasma stability): > 240 min

COc1cc(Br)c(C(=O)OCC(=O)[C@@]2(O)[C@H](C)CC3[C@@H]4CCC5=CC(=O)C=C[C@]5(C)[C@@]4(F)[C@@H](O)C[C@@]32C)c(NC(=O)[C@@H](N)C(C)C)c1 (some centres unmarked) [Compound 13]
half-life at 5 μM (in vitro): > 240 min
half-life at 5 μM (Rat plasma stability): > 240 min

COc1cc(NC(=O)[C@@H](N)C(C)C)c(C(=O)OCC(=O)[C@@]2(O)[C@H](C)CC3[C@@H]4CCC5=CC(=O)C=C[C@]5(C)[C@@]4(F)[C@@H](O)C[C@@]32C)c(OC(C)C)c1 (some centres unmarked) [Compound 14]
half-life at 5 μM (in vitro): > 240 min
half-life at 5 μM (Rat plasma stability): > 240 min

COc1cc(N(C)C)cc(NC(=O)[C@@H](N)Cc2ccccc2)c1C(=O)OCC(=O)[C@@]1(O)[C@H](C)CC2[C@@H]3CCC4=CC(=O)C=C[C@]4(C)[C@@]3(F)[C@@H](O)C[C@@]21C (some centres unmarked) [Compound 15]
half-life at 5 μM (in vitro): > 240 min
half-life at 5 μM (Rat plasma stability): > 240 min

COc1cc(N(C)C)cc(NC(=O)[C@H](Cc2ccccc2)N(C)C)c1C(=O)OCC(=O)[C@@]1(O)[C@H](C)CC2[C@@H]3CCC4=CC(=O)C=C[C@]4(C)[C@@]3(F)[C@@H](O)C[C@@]21C (some centres unmarked) [Compound 16]
half-life at 5 μM (in vitro): > 240 min
half-life at 5 μM (Rat plasma stability): > 240 min

CC(CC(=O)OCC(=O)[C@@]1(O)[C@H](C)C[C@H]2[C@@H]3CCC4=CC(=O)C=C[C@]4(C)[C@@]3(F)[C@@H](O)C[C@@]21C)c1ccccc1NC(=O)[C@@H](N)C(C)C.Cl (some centres unmarked) [Compound 18]
GR Binding Data [2]: 46%

C[C@@H]1C[C@H]2[C@@H]3CCC4=CC(=O)C=C[C@]4(C)[C@@]3(F)[C@@H](O)C[C@]2(C)[C@@]1(O)C(=O)COC(=O)NCc1ccccc1NC(=O)[C@@H](N)Cc1ccccc1.Cl [Compound 23]
half-life at 5 μM (Human plasma stability): > 240 min
half-life at 5 μM (Rat plasma stability; [5]): > 240 min

CC(C)[C@H](N)C(=O)Nc1ccc([C@H](C)NC(=O)OCC(=O)[C@@]2(O)[C@H](C)C[C@H]3[C@@H]4CCC5=CC(=O)C=C[C@]5(C)[C@@]4(F)[C@@H](O)C[C@@]32C)cc1 [Compound 24]
half-life at 5 μM (in vitro): > 240 min
half-life at 5 μM (Rat plasma stability): > 240 min

CC(NNC(=O)C1CCCN1)C(C)C(=O)OCC(=O)[C@@]1(O)[C@H](C)C[C@H]2[C@@H]3CCC4=CC(=O)C=C[C@]4(C)[C@@]3(F)[C@@H](O)C[C@@]21C (some centres unmarked) [Compound 28]
half-life at 5 μM (in vitro): > 240 min
half-life at 5 μM (Rat plasma stability): 147 min

CC(C)C(N)C(=O)N1CCCC1C(=O)NCC(C)(C)C(C)C(=O)OCC(=O)[C@@]1(O)[C@H](C)C[C@H]2[C@@H]3CCC4=CC(=O)C=C[C@]4(C)[C@@]3(F)[C@@H](O)C[C@@]21C (some centres unmarked) [Compound 31]
Chemical stability [1]: Yes
half-life at 5 μM (in vitro): > 240 min
RLM [3]: 63
Lung/Plasma % of Dex [4]: 74% and 100% and 78%
half-life at 10 μM (DPP4): 167 min
Permeability A-B (Caco-2 cell monolayers): A-B = 0.065 × 10^−6, cm/s
Permeability B-A (Caco-2 cell monolayers): B-A = 11 × 10^−6, cm/s
Rat plasma stability (Rat plasma stability; 5 μM): >240
half-life at 5 μM (Rat plasma stability): > 240 min

CNC(C(=O)N1CCCC1C(=O)NCC(C)(C)C(C)C(=O)OCC(=O)[C@@]1(O)[C@H](C)C[C@H]2[C@@H]3CCC4=CC(=O)C=C[C@]4(C)[C@@]3(F)[C@@H](O)C[C@@]21C)C(C)C (some centres unmarked) [Compound 32]
half-life at 10 μM (DPP4): 214 min

CC(C)C(N)C(=O)N1CCCC1C(=O)NCC1(CC(=O)OCC(=O)[C@@]2(O)[C@H](C)C[C@H]3[C@@H]4CCC5=CC(=O)C=C[C@]5(C)[C@@]4(F)[C@@H](O)C[C@@]32C)CC1 (some centres unmarked) [Compound 34]
half-life at 5 μM (in vitro): > 240 min
half-life at 5 μM (Rat plasma stability): > 240 min

CC(NC(C)[C@@H](N)C(C)C)c1cscc1C(=O)OCC(=O)[C@@]1(O)[C@H](C)C[C@H]2[C@@H]3CCC4=CC(=O)C=C[C@]4(C)[C@@]3(F)[C@@H](O)C[C@@]21C (some centres unmarked) [Compound 35]
half-life at 5 μM (in vitro): > 240 min
half-life at 5 μM (Rat plasma stability): > 240 min

CC(NC(=O)[C@@H](N)Cc1ccccc1)c1cscc1C(=O)OCC(=O)[C@@]1(O)[C@H](C)C[C@H]2[C@@H]3CCC4=CC(=O)C=C[C@]4(C)[C@@]3(F)[C@@H](O)C[C@@]21C (some centres unmarked) [Compound 36]
half-life at 5 μM (in vitro): > 240 min
half-life at 5 μM (Rat plasma stability): > 240 min

CC(C)[C@H](N)C(=O)NCCc1cscc1C(=O)OCC(=O)[C@@]1(O)[C@H](C)C[C@H]2[C@@H]3CCC4=CC(=O)C=C[C@]4(C)[C@@]3(F)[C@@H](O)C[C@@]21C [Compound 37]
half-life at 5 μM (in vitro): > 240 min
half-life at 5 μM (Rat plasma stability): > 240 min

CC(C)[C@H](N)C(=O)Nc1cscc1CC(=O)OCC(=O)[C@@]1(O)[C@H](C)C[C@H]2[C@@H]3CCC4=CC(=O)C=C[C@]4(C)[C@@]3(F)[C@@H](O)C[C@@]21C.Cl [Compound 38]
Chemical Stability, pH 4.5 [1]: Yes
Chemical Stability, pH 7.4 [1]: Yes
half-life at 5 μM (Human plasma stability): > 240 min
half-life at 5 μM (Rat plasma stability; [5]): > 240 min

C[C@@H]1C[C@H]2[C@@H]3CCC4=CC(=O)C=C[C@]4(C)[C@@]3(F)[C@@H](O)C[C@]2(C)[C@@]1(O)C(=O)CO [Dexamethasone, reference compound]
GR Binding Data [2]: 85%
